The source of these data is patent publication US5157052A, “Method for inhibiting IgE production” (priority 1990, dated 1992).

Common to all, as to type: in vivo, mouse (Balb/c female)
Assay [1] relates to Thy 1. Nature of the assay: Splenocyte cell surface density/distribution (FACS): Thy 1. How it is done:
(§1) Another (Group B) is injected with 20 μg (±) methyl 11α,16-dihydroxy-16-methyl-9-oxoprosta-5Z,13E-dien-1-oate as in Example 13. […] A 3 cm incision is made with a scalpel above the left hip, and the spleen is cut free from adjoining tissue and placed in a 100 mn plastic culture dish containing 10 ml PBS. The splenic cells are then made into a suspension, by rubbing the spleens between the rough, frosted ends of microscope slides repeatedly until the only remaining particulate matter is connective tissue. Cells are transferred to a 15 ml conical polystyrene tube and centrifuged in a centrifuge at 1200 rpm for 5 minutes. The supernatant is discarded by aspiration and the cell pellet is resuspended in 10 ml PBS, then centrifuged at 1200 rpm for 5 minutes. The supernatant is aspirated and the cell pellet is resuspended in 15 mM Tris, 140 mM Ammonium Chloride, to lyse red blood cells. After incubating at room temperature for 10 minutes the cell suspension is centrifuged at 1200 rpm for 10 minutes. The supernatant is discarded and the cell pellet is resuspended in 10 ml FACS Buffer (PBS containing 0.1% BSA and 0.1% Sodium Azide). The cell suspension is filtered through sterile glass wool plugged in the top of a pasteur pipet. Cells in the flow through are counted using a hemacytometer, then the cell suspension is centrifuged at 1200 rpm for 5 minutes. The supernatant is discarded and the cell pellet is resuspended in a volume of FACS Buffer that will yield 4×10^7 cells/ml. 10 μl (4×10^5 cells) is added to each well of a 96-well V-bottom plate. 25 μl of diluted monoclonal antibody directed against splenocyte cell surface proteins is added to each well: Major Histocompatability Complex (MHC) Class II (M5114, ATCC, Rockville Md.), MHC Class I (M1/42, ATCC), Anti-IgD (JA12.5, ATCC, Rockville, Md.), Thymocyte (Thy)-1 (JIJ, ATCC), B220 (14.8, ATCC), Kappa light chain (187, ATCC), IL-2 Receptor (7D4, ATCC), Lyt-1 (7.313, ATCC) and CD23 (biotinylated B3B4) and incubated on ice for 30 minutes. 100 μl 10% BSA 0.1% sodium azide is added to each well, then the plates are centrifuged at 1200 rpm for 10 minutes. The liquid is removed by aspiration and the cell pellets are resuspended in 100 μl FACS Buffer, and centrifuged at 1200 rpm for 5 minutes. […] Samples are transferred to individual tubes and 10,000 cells are analyzed. Using the Lysis software (Becton Dickinson, Mountain View, Calif.) the mean channel log fluorescence and percent positive cells are determined for the entire cell population. […]

In assay [2] the test system is B220. Kind of assay: Splenocyte cell surface density/distribution (FACS): B220.
In assay [3] the test system is IL-2 receptor. Nature of the assay: Splenocyte cell surface density/distribution (FACS): IL-2 receptor. Here is the method:
as §1

Regarding `CCCCC(C)(O)C/C=C/[C@H]1[C@H](O)CC(=O)[C@@H]1C/C=C\CCCC(=O)OC` (mixture of isomers) [(±) methyl 11α,16-dihydroxy-16-methyl-9-oxoprosta-5Z,13E-dien-1-oate], the “Percentage Positive Cells” value in assay [1] (anti-IgD stimulated mice, 20 μg days 3 and 4, day 7 (PBS 14.3)) was 23 ± 10%; in assay [1] (unstimulated mice, 20 μg (PBS 9.3)), 25.4 ± 3%; in assay [2] (anti-IgD stimulated mice, 20 μg days 3 and 4, day 7 (PBS 49.3)) it was 61.2 ± .9%; in assay [2] (unstimulated mice, 20 μg (PBS 49.6)) it was 50.6 ± 4.6%; in assay [3] (anti-IgD stimulated mice, 20 μg days 3 and 4, day 7 (PBS 18.4)) it was 23 ± 7.7%; in assay [3] (unstimulated mice, 20 μg (PBS 2.4)), 2.7 ± 0.3%. The “Mean Channel Log Fluorescence” value in assay [1] (anti-IgD stimulated mice, 20 μg days 3 and 4, day 7 (PBS 97)) is recorded as 98 ± 0; in assay [1] (unstimulated mice, 20 μg (PBS 91)), 92 ± 3; in assay [2] (anti-IgD stimulated mice, 20 μg days 3 and 4, day 7 (PBS 107)) it was 112 ± 4; in assay [2] (unstimulated mice, 20 μg (PBS 104)) it was 105 ± 2.5; in assay [3] (anti-IgD stimulated mice, 20 μg days 3 and 4, day 7 (PBS 101)), 97 ± 1.5; in assay [3] (unstimulated mice, 20 μg (PBS 98)) it was 96 ± 1.
